Active and inactive are the calls of the source. No cut-off for these calls is given here.
Tests used:
[1] = Tmax in human plasma at 12 mg, po; type: ADME, cell-free
[2] = Cmax in human plasma at 8 mg, po; type: ADME, cell-free; set-up: route oral, dose 8 mg
Acetylcholinesterase = Acetylcholinesterase (Homo sapiens, UniProt P22303); test: Binding affinity to CM5 sensor chip immobilized recombinant human AChE assessed as dissociation constant at 298.15 K by surface plasmon resonance assay
[3] = Cmax in human plasma at 2 mg, po; type: ADME, cell-free; set-up: route oral, dose 2 mg
[4] = Cmax in Sprague-Dawley rat plasma at 10 mg/kg, po; type: ADME, organism-based; set-up: route oral, dose 10 mg/kg
[5] = Ratio of drug concentration in brain to plasma of Sprague-Dawley rat at 10 mg/kg, po; type: ADME, organism-based; conditions: read-out: BPR
[6] = Cmax in human plasma at 12 mg, po; type: ADME, cell-free; set-up: route oral, dose 12 mg
[7] = Cardiotoxicity in Beagle dog assessed as effect on QRS interval at 0.1 to 1 mg/kg; type: toxicity, organism-based, Canis lupus familiaris; conditions: in vivo, dose 0.1-1 mg/kg
Cytochrome P450 2C8 = target: T1, Cytochrome P450 2C8 (Homo sapiens, UniProt P10632); test: Inhibition of CYP2C8 in human hepatocytes; type: ADME, cell-based, Hepatocyte
T1 sequence (P10632 whole entry): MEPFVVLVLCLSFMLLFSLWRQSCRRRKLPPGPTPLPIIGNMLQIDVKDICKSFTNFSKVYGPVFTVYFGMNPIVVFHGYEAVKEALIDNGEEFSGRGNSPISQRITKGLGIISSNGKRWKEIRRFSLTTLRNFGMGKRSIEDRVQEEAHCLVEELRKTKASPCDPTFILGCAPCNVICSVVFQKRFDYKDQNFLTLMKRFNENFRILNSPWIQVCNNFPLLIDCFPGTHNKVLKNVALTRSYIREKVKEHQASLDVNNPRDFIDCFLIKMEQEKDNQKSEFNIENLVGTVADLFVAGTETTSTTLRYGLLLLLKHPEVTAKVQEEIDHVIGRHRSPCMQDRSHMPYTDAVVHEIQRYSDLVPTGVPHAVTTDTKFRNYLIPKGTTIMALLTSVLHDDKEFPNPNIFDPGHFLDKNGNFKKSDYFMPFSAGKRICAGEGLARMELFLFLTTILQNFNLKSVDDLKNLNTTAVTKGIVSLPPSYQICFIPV

[8] = MRT (0 to infinity) in Sprague-Dawley rat at 0.5 mg/kg, iv; type: ADME, organism-based; conditions: in vivo
[9] = Toxicity in Beagle dog assessed as animal death at 1 to 20 mg/kg, po; type: organism-based, Canis lupus familiaris; conditions: in vivo, dose 1-20 mg/kg
[10] = Half life in Sprague-Dawley rat at 0.5 mg/kg, po; type: ADME, organism-based; conditions: in vivo
[11] = AUC(0 to t) in Sprague-Dawley rat brain at 10 mg/kg, po; type: ADME, organism-based; set-up: dose 10 mg/kg
[12] = Clearance in Beagle dog at 0.25 mg/kg, iv; type: ADME, organism-based, Canis lupus familiaris; conditions: in vivo
[13] = target: T2, Acetylcholinesterase (Mus musculus) (UniProt P21836); test: Ex vivo inhibition of AChE in ICR mouse hippocampal homogenate at 2 mg/kg, ig using acetylthiocholine iodide as substrate measured after 30 to 240 mins by DTNB reagent based assay; type: functional, organism-based; conditions: time 30-240 min
T2 sequence (whole entry): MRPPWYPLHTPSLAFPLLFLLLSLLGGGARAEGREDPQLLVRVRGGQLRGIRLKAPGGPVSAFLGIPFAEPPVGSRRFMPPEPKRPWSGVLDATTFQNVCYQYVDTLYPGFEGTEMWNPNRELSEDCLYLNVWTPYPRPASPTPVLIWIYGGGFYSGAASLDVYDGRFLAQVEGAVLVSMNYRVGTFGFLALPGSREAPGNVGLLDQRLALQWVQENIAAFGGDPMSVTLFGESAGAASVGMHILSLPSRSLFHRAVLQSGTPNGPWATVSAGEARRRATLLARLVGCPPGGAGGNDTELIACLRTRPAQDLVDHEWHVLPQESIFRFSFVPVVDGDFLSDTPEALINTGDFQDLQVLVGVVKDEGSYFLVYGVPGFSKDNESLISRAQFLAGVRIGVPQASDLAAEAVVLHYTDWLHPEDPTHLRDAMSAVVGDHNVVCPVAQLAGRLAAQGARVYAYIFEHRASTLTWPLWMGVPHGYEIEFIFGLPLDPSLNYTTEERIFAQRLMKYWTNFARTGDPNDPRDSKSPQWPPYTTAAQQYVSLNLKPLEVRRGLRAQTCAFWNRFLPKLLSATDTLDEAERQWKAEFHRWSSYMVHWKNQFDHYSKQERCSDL

[14] = Terminal half life in human plasma at 1 mg, po; type: ADME, cell-free; conditions: read-out: beta t1/2 (converted)
[15] = Genotoxicity in Salmonella typhimurium TA100 by Ames test; type: toxicity; conditions: salmonella enterica subsp. enterica serovar typhimurium
[16] = MRT in Sprague-Dawley rat brain at 10 mg/kg, po; type: ADME, organism-based
Cytochrome P450 3A4 = Cytochrome P450 3A4 (Homo sapiens, UniProt P08684); test: Inhibition of CYP3A4 in human hepatocytes; type: ADME, cell-based, Hepatocyte
[17] = Genotoxicity in ICR mouse at 7.5 to 30 mg/kg, po administered once a day for 2 consecutive days by micronucleus test; type: toxicity, organism-based; conditions: in vivo, 48 h, dose 7.5-30 mg/kg, time 2 day
[18] = Tmax in Sprague-Dawley rat plasma at 10 mg/kg, po; type: ADME, organism-based
[19] = Oral bioavailability in Beagle dog at 0.25 mg/kg; type: ADME, organism-based, Canis lupus familiaris; conditions: in vivo
[20] = Half life in Beagle dog at 0.25 mg/kg, po; type: ADME, organism-based, Canis lupus familiaris; conditions: in vivo
[21] = Selectivity ratio of IC50 for human ERG to IC50 for rat cortex homogenate acetylcholinesterase
[22] = Protein binding in rat plasma; type: ADME, cell-free; conditions: read-out: PPB (converted)
[23] = Volume of distribution at steady state in Sprague-Dawley rat at 0.5 mg/kg, po or iv; type: ADME, organism-based; conditions: in vivo, read-out: Vdss
[24] = Induction of CYP3A4 expression in human hepatocytes at 10 uM; type: ADME, cell-based, Hepatocyte
[25] = Cmax in Sprague-Dawley rat brain at 10 mg/kg, po; type: ADME, organism-based; set-up: route oral, dose 10 mg/kg
Cytochrome P450 2B6 = target: T3, Cytochrome P450 2B6 (Homo sapiens, UniProt P20813); test: Inhibition of CYP2B6 in human hepatocytes; type: ADME, cell-based, Hepatocyte
T3 sequence (P20813 whole entry): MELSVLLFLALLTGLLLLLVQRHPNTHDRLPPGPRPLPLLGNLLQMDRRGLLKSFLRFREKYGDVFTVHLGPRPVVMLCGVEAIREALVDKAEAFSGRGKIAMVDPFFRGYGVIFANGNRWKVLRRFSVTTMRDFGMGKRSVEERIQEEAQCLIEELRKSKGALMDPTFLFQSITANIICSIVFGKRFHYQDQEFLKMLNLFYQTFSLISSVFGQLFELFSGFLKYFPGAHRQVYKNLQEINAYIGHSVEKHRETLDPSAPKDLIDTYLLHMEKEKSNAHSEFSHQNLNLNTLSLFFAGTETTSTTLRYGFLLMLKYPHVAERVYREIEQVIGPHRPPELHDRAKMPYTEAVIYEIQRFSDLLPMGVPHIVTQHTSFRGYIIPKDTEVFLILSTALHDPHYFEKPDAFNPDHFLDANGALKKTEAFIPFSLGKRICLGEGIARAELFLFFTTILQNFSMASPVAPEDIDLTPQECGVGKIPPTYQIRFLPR

[26] = Terminal half life in human plasma at 2 mg, po; type: ADME, cell-free; conditions: read-out: beta t1/2 (converted)

Chain of Acetylcholinesterase (P22303 whole entry): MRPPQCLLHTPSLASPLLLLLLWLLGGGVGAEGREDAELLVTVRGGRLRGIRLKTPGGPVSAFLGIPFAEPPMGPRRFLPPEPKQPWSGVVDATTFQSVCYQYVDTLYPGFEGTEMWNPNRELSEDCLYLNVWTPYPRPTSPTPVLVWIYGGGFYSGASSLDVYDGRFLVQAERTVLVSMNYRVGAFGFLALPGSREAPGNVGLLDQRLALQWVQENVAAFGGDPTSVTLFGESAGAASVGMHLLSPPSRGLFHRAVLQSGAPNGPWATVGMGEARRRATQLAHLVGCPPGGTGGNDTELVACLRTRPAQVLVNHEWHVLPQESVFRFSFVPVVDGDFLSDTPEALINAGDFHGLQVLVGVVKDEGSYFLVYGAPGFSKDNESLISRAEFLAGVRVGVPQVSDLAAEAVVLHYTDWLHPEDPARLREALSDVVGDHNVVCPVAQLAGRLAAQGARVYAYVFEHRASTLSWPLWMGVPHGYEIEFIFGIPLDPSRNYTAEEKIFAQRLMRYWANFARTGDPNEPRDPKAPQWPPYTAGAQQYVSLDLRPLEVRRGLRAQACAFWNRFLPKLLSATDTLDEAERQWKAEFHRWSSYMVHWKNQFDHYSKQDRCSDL
Chain of Cytochrome P450 3A4 (P08684 whole entry): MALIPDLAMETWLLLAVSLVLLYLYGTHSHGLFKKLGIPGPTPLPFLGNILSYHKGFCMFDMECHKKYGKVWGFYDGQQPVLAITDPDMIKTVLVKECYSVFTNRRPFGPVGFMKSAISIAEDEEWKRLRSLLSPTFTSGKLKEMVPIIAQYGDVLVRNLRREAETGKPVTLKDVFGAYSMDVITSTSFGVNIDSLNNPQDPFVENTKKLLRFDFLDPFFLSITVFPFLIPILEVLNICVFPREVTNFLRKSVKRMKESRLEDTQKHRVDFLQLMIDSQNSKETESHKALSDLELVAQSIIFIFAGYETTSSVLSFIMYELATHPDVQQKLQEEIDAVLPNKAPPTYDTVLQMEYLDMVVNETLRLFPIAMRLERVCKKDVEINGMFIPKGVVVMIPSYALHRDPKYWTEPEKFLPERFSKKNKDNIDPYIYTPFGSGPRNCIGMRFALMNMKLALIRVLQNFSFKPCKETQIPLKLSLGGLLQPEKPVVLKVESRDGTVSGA

For `COc1cc2c(cc1OC)C(=O)C(CC1(F)CCN(Cc3ccccc3F)CC1)C2` (stereo not given), the Tmax [1] was 1.5 h, the Cmax [2] was 16.4 ng/mL and the Kd (Acetylcholinesterase) was 0.0035 µM. For the same compound, the Cmax [3] was 2.43 ng/mL, the Cmax [4] was 215 ng/mL and the Kp [5] was 5.4. For the same compound, the Cmax [6] was 23.5 ng/mL, the Activity [7] was “Non-Toxic” and the IC50 (Cytochrome P450 2C8) was > 30 µM. The MRT inf [8] was 5.21 h, the Activity [9] was “Non-Toxic” and the half-life [10] was 4.17 h. For the same compound, the AUC(0-t) [11] was 5840 ng·h/mL, the clearance [12] was 17.5 mL/min/kg and the inhibition [13] was “Active”. For the same compound, the half-life [14] was 14.2 h, the Activity [15] was “Non-Toxic” and the MRT [16] was 8.9 h. For the same compound, the IC50 (Cytochrome P450 3A4) was > 30 µM, the Activity [17] was “Non-Toxic” and the Tmax [18] was 0.5 h. The bioavailability [19] was 61.3%, the half-life [20] was 23.2 h and the Ratio IC50 [21] was 10700. The fraction unbound [22] was 0.031, the Vd [23] was 6.52 L/kg and the Activity [24] was “Non-Toxic”. The Cmax [25] was 831 ng/mL, the IC50 (Cytochrome P450 2B6) was > 30 µM and the half-life [26] was 20.7 h.

From ChEMBL document CHEMBL4813953, “Kinetics-Driven Drug Design Strategy for Next-Generation Acetylcholinesterase Inhibitors to Clinical Candidate” (J Med Chem, 2021)
